Data reported in ChEMBL document CHEMBL1781873, “Synthesis and antibacterial property of pyrrolopyrano quinolinones and pyrroloquinolines” (2011).
Calls of active or inactive are those of the source. The rule behind the calls is not given here.

Legend:
Escherichia coli [1] = test: Antibacterial activity against Escherichia coli at 10 ug after 24 hrs by disc diffusion assay; type: functional; settings: read-out: IZ
Salmonella typhi [2] = test: Antibacterial activity against Salmonella typhi at 15 ug after 24 hrs by disc diffusion assay; type: functional, Salmonella enterica subsp. enterica serovar Typhi; settings: Salmonella enterica, read-out: IZ
Escherichia coli [3] = test: Antibacterial activity against Escherichia coli at 20 ug after 24 hrs by disc diffusion assay; type: functional; settings: read-out: IZ
Bacillus subtilis [4] = test: Antibacterial activity against Bacillus subtilis at 15 ug after 24 hrs by disc diffusion assay; type: functional; settings: read-out: IZ
Klebsiella pneumoniae [5] = test: Antibacterial activity against Klebsiella pneumoniae at 20 ug after 24 hrs by disc diffusion assay; type: functional; settings: read-out: IZ
Salmonella typhi [6] = test: Antibacterial activity against Salmonella typhi at 20 ug after 24 hrs by disc diffusion assay; type: functional, Salmonella enterica subsp. enterica serovar Typhi; settings: Salmonella enterica, read-out: IZ
Escherichia coli [7] = test: Inhibition of Escherichia coli DNA gyrase -mediated DNA relaxation using pBR322 DNA as substrate at […] after 1 hrs by agarose gel electrophoresis
Pseudomonas aeruginosa [8] = test: Antibacterial activity against Pseudomonas aeruginosa at 5 ug after 24 hrs by disc diffusion assay; type: functional; settings: read-out: IZ
Escherichia coli [9] = test: Inhibition of Escherichia coli DNA gyrase assessed as inhibition of DNA supercoiling activity using pBR322 DNA as substrate at […] after 3 hrs by agarose gel electrophoresis
Salmonella typhi [10] = test: Antibacterial activity against Salmonella typhi at 25 ug after 24 hrs by disc diffusion assay; type: functional, Salmonella enterica subsp. enterica serovar Typhi; settings: Salmonella enterica, read-out: IZ
Pseudomonas aeruginosa [11] = test: Antibacterial activity against Pseudomonas aeruginosa at 25 ug after 24 hrs by disc diffusion assay; type: functional; settings: read-out: IZ
Salmonella typhi [12] = test: Antibacterial activity against Salmonella typhi after 18 to 20 hrs by broth micro dilution assay; type: functional, Salmonella enterica subsp. enterica serovar Typhi; settings: Salmonella enterica
Escherichia coli [13] = test: Antibacterial activity against Escherichia coli after 18 to 20 hrs by broth micro dilution assay; type: functional
Klebsiella pneumoniae [14] = test: Antibacterial activity against Klebsiella pneumoniae at 15 ug after 24 hrs by disc diffusion assay; type: functional; settings: read-out: IZ
Salmonella typhi [15] = test: Antibacterial activity against Salmonella typhi at 5 ug after 24 hrs by disc diffusion assay; type: functional, Salmonella enterica subsp. enterica serovar Typhi; settings: Salmonella enterica, read-out: IZ
Pseudomonas aeruginosa [16] = test: Antibacterial activity against Pseudomonas aeruginosa at 15 ug after 24 hrs by disc diffusion assay; type: functional; settings: read-out: IZ
Staphylococcus aureus [17] = test: Antibacterial activity against Staphylococcus aureus after 18 to 20 hrs by broth micro dilution assay; type: functional
Escherichia coli [18] = test: Antibacterial activity against Escherichia coli at 15 ug after 24 hrs by disc diffusion assay; type: functional; settings: read-out: IZ
Klebsiella pneumoniae [19] = test: Antibacterial activity against Klebsiella pneumoniae at 5 ug after 24 hrs by disc diffusion assay; type: functional; settings: read-out: IZ
Escherichia coli [20] = test: Antibacterial activity against Escherichia coli at 5 ug after 24 hrs by disc diffusion assay; type: functional; settings: read-out: IZ
Pseudomonas aeruginosa [21] = test: Antibacterial activity against Pseudomonas aeruginosa at 20 ug after 24 hrs by disc diffusion assay; type: functional; settings: read-out: IZ
Pseudomonas aeruginosa [22] = test: Antibacterial activity against Pseudomonas aeruginosa after 18 to 20 hrs by broth micro dilution assay; type: functional
Escherichia coli [23] = test: Inhibition of DNA gyrase mRNA expression in Escherichia coli measured up to 24 hrs by RT-PCR; type: functional, organism-based
Bacillus subtilis [24] = test: Antibacterial activity against Bacillus subtilis after 18 to 20 hrs by broth micro dilution assay; type: functional
Bacillus subtilis [25] = test: Antibacterial activity against Bacillus subtilis at 25 ug after 24 hrs by disc diffusion assay; type: functional; settings: read-out: IZ
Staphylococcus aureus [26] = test: Antibacterial activity against Staphylococcus aureus at 10 ug after 24 hrs by disc diffusion assay; type: functional; settings: read-out: IZ
Salmonella typhi [27] = test: Antibacterial activity against Salmonella typhi at 10 ug after 24 hrs by disc diffusion assay; type: functional, Salmonella enterica subsp. enterica serovar Typhi; settings: Salmonella enterica, read-out: IZ
Staphylococcus aureus [28] = test: Antibacterial activity against Staphylococcus aureus at 5 ug after 24 hrs by disc diffusion assay; type: functional; settings: read-out: IZ
Klebsiella pneumoniae [29] = test: Antibacterial activity against Klebsiella pneumoniae after 18 to 20 hrs by broth micro dilution assay; type: functional
Bacillus subtilis [30] = test: Antibacterial activity against Bacillus subtilis at 10 ug after 24 hrs by disc diffusion assay; type: functional; settings: read-out: IZ
Escherichia coli [31] = test: Antibacterial activity against Escherichia coli at 25 ug after 24 hrs by disc diffusion assay; type: functional; settings: read-out: IZ
Klebsiella pneumoniae [32] = test: Antibacterial activity against Klebsiella pneumoniae at 25 ug after 24 hrs by disc diffusion assay; type: functional; settings: read-out: IZ
Klebsiella pneumoniae [33] = test: Antibacterial activity against Klebsiella pneumoniae at 10 ug after 24 hrs by disc diffusion assay; type: functional; settings: read-out: IZ
Staphylococcus aureus [34] = test: Antibacterial activity against Staphylococcus aureus at 20 ug after 24 hrs by disc diffusion assay; type: functional; settings: read-out: IZ
Bacillus subtilis [35] = test: Antibacterial activity against Bacillus subtilis at 20 ug after 24 hrs by disc diffusion assay; type: functional; settings: read-out: IZ
Staphylococcus aureus [36] = test: Antibacterial activity against Staphylococcus aureus at 15 ug after 24 hrs by disc diffusion assay; type: functional; settings: read-out: IZ
Pseudomonas aeruginosa [37] = test: Antibacterial activity against Pseudomonas aeruginosa at 10 ug after 24 hrs by disc diffusion assay; type: functional; settings: read-out: IZ
Staphylococcus aureus [38] = test: Antibacterial activity against Staphylococcus aureus at 25 ug after 24 hrs by disc diffusion assay; type: functional; settings: read-out: IZ

SMILES: CCC1[C@@H]2c3c(c4ccccc4n(C)c3=O)OC(C)(C)[C@H]2CN1OS(=O)(=O)c1ccc(C)cc1 (mixture of isomers)
- zone of inhibition at 10 µg/disc (Escherichia coli [1]): 16 mm
- zone of inhibition at 15 µg/disc (Salmonella typhi [2]): 18 mm
- zone of inhibition at 20 µg/disc (Escherichia coli [3]): 20 mm
- zone of inhibition at 15 µg/disc (Bacillus subtilis [4]): 9 mm
- zone of inhibition at 20 µg/disc (Klebsiella pneumoniae [5]): 34 mm
- zone of inhibition at 20 µg/disc (Salmonella typhi [6]): 20 mm
- inhibition (Escherichia coli [7]): Active
- zone of inhibition at 5 µg/disc (Pseudomonas aeruginosa [8]): 10 mm
- DNA gyrase inhibition (active/inactive) (Escherichia coli [9]): Active
- zone of inhibition at 25 µg/disc (Salmonella typhi [10]): 22 mm
- zone of inhibition at 25 µg/disc (Pseudomonas aeruginosa [11]): 24 mm
- MIC50 (Salmonella typhi [12]): 0.5 µg/mL
- MIC90 (Salmonella typhi [12]): 0.5 µg/mL
- MIC50 (Escherichia coli [13]): 0.5 µg/mL
- MIC90 (Escherichia coli [13]): 1 µg/mL
- zone of inhibition at 15 µg/disc (Klebsiella pneumoniae [14]): 30 mm
- zone of inhibition at 5 µg/disc (Salmonella typhi [15]): 10 mm
- zone of inhibition at 15 µg/disc (Pseudomonas aeruginosa [16]): 17 mm
- MIC50 (Staphylococcus aureus [17]): 0.5 µg/mL
- MIC90 (Staphylococcus aureus [17]): 0.5 µg/mL
- zone of inhibition at 15 µg/disc (Escherichia coli [18]): 18 mm
- zone of inhibition at 5 µg/disc (Klebsiella pneumoniae [19]): 20 mm
- zone of inhibition at 5 µg/disc (Escherichia coli [20]): 10 mm
- zone of inhibition at 20 µg/disc (Pseudomonas aeruginosa [21]): 22 mm
- MIC50 (Pseudomonas aeruginosa [22]): 0.5 µg/mL
- MIC90 (Pseudomonas aeruginosa [22]): 0.5 µg/mL
- inhibition of gyrase mRNA expression (active/not active) (Escherichia coli [23]): Active
- MIC50 (Bacillus subtilis [24]): 0.5 µg/mL
- MIC90 (Bacillus subtilis [24]): 0.5 µg/mL
- zone of inhibition at 25 µg/disc (Bacillus subtilis [25]): 12 mm
- zone of inhibition at 10 µg/disc (Staphylococcus aureus [26]): 12 mm
- zone of inhibition at 10 µg/disc (Salmonella typhi [27]): 16 mm
- zone of inhibition at 5 µg/disc (Staphylococcus aureus [28]): 9 mm
- MIC50 (Klebsiella pneumoniae [29]): 0.5 µg/mL
- MIC90 (Klebsiella pneumoniae [29]): 0.5 µg/mL
- zone of inhibition at 10 µg/disc (Bacillus subtilis [30]): 7 mm
- zone of inhibition at 25 µg/disc (Escherichia coli [31]): 23 mm
- zone of inhibition at 25 µg/disc (Klebsiella pneumoniae [32]): 36 mm
- zone of inhibition at 10 µg/disc (Klebsiella pneumoniae [33]): 26 mm
- zone of inhibition at 20 µg/disc (Staphylococcus aureus [34]): 14 mm
- zone of inhibition at 20 µg/disc (Bacillus subtilis [35]): 10 mm
- zone of inhibition at 15 µg/disc (Staphylococcus aureus [36]): 13 mm
- zone of inhibition at 10 µg/disc (Pseudomonas aeruginosa [37]): 16 mm
- zone of inhibition at 25 µg/disc (Staphylococcus aureus [38]): 17 mm

SMILES: CCC1[C@@H]2c3c(c4ccccc4n(C)c3=O)OC(c3ccccc3)[C@H]2CN1OS(=O)(=O)c1ccc(C)cc1 (mixture of isomers)
- zone of inhibition at 10 µg/disc (Escherichia coli [1]): 16 mm
- zone of inhibition at 15 µg/disc (Salmonella typhi [2]): 18 mm
- zone of inhibition at 20 µg/disc (Escherichia coli [3]): 20 mm
- zone of inhibition at 15 µg/disc (Bacillus subtilis [4]): 9 mm
- zone of inhibition at 20 µg/disc (Klebsiella pneumoniae [5]): 34 mm
- zone of inhibition at 20 µg/disc (Salmonella typhi [6]): 20 mm
- inhibition (Escherichia coli [7]): Active
- zone of inhibition at 5 µg/disc (Pseudomonas aeruginosa [8]): 10 mm
- DNA gyrase inhibition (active/inactive) (Escherichia coli [9]): Active
- zone of inhibition at 25 µg/disc (Salmonella typhi [10]): 22 mm
- zone of inhibition at 25 µg/disc (Pseudomonas aeruginosa [11]): 24 mm
- MIC50 (Salmonella typhi [12]): 128 µg/mL
- MIC90 (Salmonella typhi [12]): 128 µg/mL
- MIC50 (Escherichia coli [13]): 128 µg/mL
- MIC90 (Escherichia coli [13]): 128 µg/mL
- zone of inhibition at 15 µg/disc (Klebsiella pneumoniae [14]): 30 mm
- zone of inhibition at 5 µg/disc (Salmonella typhi [15]): 10 mm
- zone of inhibition at 15 µg/disc (Pseudomonas aeruginosa [16]): 17 mm
- MIC50 (Staphylococcus aureus [17]): 128 µg/mL
- MIC90 (Staphylococcus aureus [17]): 128 µg/mL
- zone of inhibition at 15 µg/disc (Escherichia coli [18]): 18 mm
- zone of inhibition at 5 µg/disc (Klebsiella pneumoniae [19]): 20 mm
- zone of inhibition at 5 µg/disc (Escherichia coli [20]): 10 mm
- zone of inhibition at 20 µg/disc (Pseudomonas aeruginosa [21]): 22 mm
- MIC50 (Pseudomonas aeruginosa [22]): 128 µg/mL
- MIC90 (Pseudomonas aeruginosa [22]): 128 µg/mL
- inhibition of gyrase mRNA expression (active/not active) (Escherichia coli [23]): Active
- MIC50 (Bacillus subtilis [24]): 128 µg/mL
- MIC90 (Bacillus subtilis [24]): 128 µg/mL
- zone of inhibition at 25 µg/disc (Bacillus subtilis [25]): 12 mm
- zone of inhibition at 10 µg/disc (Staphylococcus aureus [26]): 12 mm
- zone of inhibition at 10 µg/disc (Salmonella typhi [27]): 16 mm
- zone of inhibition at 5 µg/disc (Staphylococcus aureus [28]): 9 mm
- MIC50 (Klebsiella pneumoniae [29]): 128 µg/mL
- MIC90 (Klebsiella pneumoniae [29]): 128 µg/mL
- zone of inhibition at 10 µg/disc (Bacillus subtilis [30]): 7 mm
- zone of inhibition at 25 µg/disc (Escherichia coli [31]): 23 mm
- zone of inhibition at 25 µg/disc (Klebsiella pneumoniae [32]): 36 mm
- zone of inhibition at 10 µg/disc (Klebsiella pneumoniae [33]): 26 mm
- zone of inhibition at 20 µg/disc (Staphylococcus aureus [34]): 14 mm
- zone of inhibition at 20 µg/disc (Bacillus subtilis [35]): 10 mm
- zone of inhibition at 15 µg/disc (Staphylococcus aureus [36]): 13 mm
- zone of inhibition at 10 µg/disc (Pseudomonas aeruginosa [37]): 16 mm
- zone of inhibition at 25 µg/disc (Staphylococcus aureus [38]): 17 mm
